Test results as given in US7728012B2, “Carboxamide compounds and their use as calpain inhibitors” (Abbott GmbH & Co. KG, priority 2006, dated 2010).

How the values were obtained:
Assay type in all cases: biochemical
[1] = biological target: T1, cathepsin K activated from recombinant human procathepsin K (Homo sapiens, UniProt P43235); assay: Cathepsin K kinetic fluorescence enzyme inhibition assay; details: selectivity ratio versus calpain I
T1 construct: purchased Calbiochem 342001; host or cells: E. coli
T1 sequence (P43235 115-329): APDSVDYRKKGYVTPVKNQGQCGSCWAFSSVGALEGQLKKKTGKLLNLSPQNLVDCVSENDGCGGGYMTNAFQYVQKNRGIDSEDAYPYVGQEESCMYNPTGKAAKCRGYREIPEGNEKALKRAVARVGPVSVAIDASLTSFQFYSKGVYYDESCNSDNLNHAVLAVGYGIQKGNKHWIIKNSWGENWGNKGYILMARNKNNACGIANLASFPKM
Experimental: The following solutions and buffers were employed: • HBS (for 40 ml): 800 μl M HEPES; 2.16 ml 100 mM KCl; 4.8 ml 1M NaCl; 3.59 ml 5% glucose; 60 μl μM MgSO4; 400 μl 100 mM Na pyruvate, 28.19 ml water; pH 7.2-7.5. • lysis buffer (for 20 ml): 400 μl M Tris pH 8.2; 2.74 ml 1M NaCl; 520 μl 0.5M EDTA; 2 ml 10% triton X-100; 0.8 ml (=1:25) CompletePlus (1 tablet/2 ml H2O); 200 μl 100 mM Pefabloc; 13.34 ml water, pH 8.2. • TBST (10×) (for 1 l): 100 mM Tris (12.1 g); 1.5M NaCl (87 g); 1% Tween 20 (10 g), adjusted to pH 8. I Enzyme Inhibition In Vitro: • Testing for blockade of the corresponding enzymic activities was carried out by means of kinetic fluorescence assays (excitation 390 nm, emission 460 nm). • Apparent Ki values were calculated from the experimentally determined IC50 values by the Cheng-Prussoff relation assuming a reversible competitive enzyme inhibition. The Km values of the substrates used under the assay conditions indicated above were: 90 μM (Z-Phe-Arg-AMC, cathepsin B), 10 μM (Z-Gly-Pro-Arg-AMC, cathepsin K), 2 μM (Z-Phe-Arg-AMC, cathepsin L), and 30 μM (Z-Val-Val-Arg-AMC, cathepsin S). • The indicated Ki values are averages of the inhibition constants calculated on the basis of 2 to 4 independent dose-effect plots.
The following assays were used: • 1. Calpain I: • 20 nM calpain-I—isolated from human erythrocytes (Calbiochem #208713), 100 μM Suc-Leu-Tyr-AMC (Bachem #1-1355) as substrate in buffer with 62 mM imidazole, 0.3 mM CaCl2, 0.10% CHAPS, 0.05% BSA, 1 mM DTT at pH 7.3 and room temperature. • 2. Cathepsin B: • 0.25 nM cathepsin B—isolated from human liver (Calbiochem #219362), 100 μM Z-Phe-Arg-AMC (Bachem #I-1160) as substrate 50 mM MES, 2 mM EDTA, 0.05% Brij 35, 2.5 mM L-cysteine, pH 6.0, room temperature. • 3. Cathepsin K: • 3 nM cathepsin K—activated from recombinant human procathepsin K from E. coli (Calbiochem #342001), 10 μM Z-Gly-Pro-Arg-AMC (Biomol #P-142) as substrate in 50 mM MES, 2 mM EDTA, 0.05% Brij 35, 2.5 mM L-cysteine, pH 6.0, room temperature. • 4. Cathepsin L: • 1 nM cathepsin L—isolated from human liver (Calbiochem #219402), 2 μM Z-Phe-Arg-AMC (Bachem #1-1160) as substrate in 50 mM MES, 2 mM EDTA, 0.05% Brij 35, 2.5 mM L-cysteine, pH 6.0, room temperature. • 5. Cathepsin S: • 0.5 nM recombinant human cathepsin S from E. coli (Calbiochem #219343), 20 μM Z-Val-Val-Arg-AMC (Bachem #1-1540) as substrate in 50 mM MES, 2 mM EDTA, 0.05% Brij 35, 2.5 mM L-cysteine, pH 6.0, room temperature. • The results of the in vitro determination are indicated in Table 1. The following abbreviations are used in Table 1: • The “Calpain activity” column, ++ stands for a calpain Ki (Ki(calpain)) of ≦40 nM and + means: 40 nM<Ki(Calpain)≦100 nM. • The “Sel. cat. B” column indicates the Ki(cathepsin B)/Ki(calpain) ratio. In this connection, ++ means a Ki(cathepsin B)/Ki(calpain) ratio of ≧30 and + means 10≦Ki(cathepsin B)/Ki(calpain)<30. • The “Sel. cat. K” column indicates the Ki(cathepsin K)/Ki(calpain) ratio. In this connection, ++ means a Ki(cathepsin K)/Ki(calpain) ratio of ≧30 and + means 10≦Ki(cathepsin K)/Ki(calpain)<30. • The “Sel. cat. L” column indicates the Ki(cathepsin L)/Ki(calpain) ratio. In this connection, ++ means a Ki(cathepsin L)/Ki(calpain) ratio of ≧50 and + means 30≦Ki(cathepsin L)/Ki(calpain)<50. • The “Sel. cat. S” column indicates the Ki(cathepsin S)/Ki(calpain) ratio. In this connection, ++ means a Ki(cathepsin S)/Ki(calpain) ratio of ≧100 and + means 50≦Ki(cathepsin S)/Ki(calpain)<100.

[2] = biological target: T2, recombinant human cathepsin S (Homo sapiens, UniProt P25774); assay: Cathepsin S kinetic fluorescence enzyme inhibition assay; details: selectivity ratio versus calpain I
T2 construct: purchased Calbiochem 219343; host or cells: E. coli
How it was run: (§1)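 Inhibition is measured at room temperature in cysteine-containing MES buffer, pH 6.0, by continuous fluorescence at 460 nm. Cathepsin S (0.5 nM) uses 20 μM Z-Val-Val-Arg-AMC; L (1 nM) and B (0.25 nM) use Z-Phe-Arg-AMC at 2 and 100 μM respectively.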

[3] = biological target: T3, calpain-I isolated from human erythrocytes (Homo sapiens, UniProt P07384); assay: Calpain I kinetic fluorescence enzyme inhibition assay; details: apparent Ki from IC50 by Cheng-Prussoff; average of 2 to 4 dose-effect plots
T3 construct: calpain-I—isolated from human erythrocytes; purchased Calbiochem 208713; host or cells: human erythrocytes (tissue isolate)
T3 sequence (P07384 1-714): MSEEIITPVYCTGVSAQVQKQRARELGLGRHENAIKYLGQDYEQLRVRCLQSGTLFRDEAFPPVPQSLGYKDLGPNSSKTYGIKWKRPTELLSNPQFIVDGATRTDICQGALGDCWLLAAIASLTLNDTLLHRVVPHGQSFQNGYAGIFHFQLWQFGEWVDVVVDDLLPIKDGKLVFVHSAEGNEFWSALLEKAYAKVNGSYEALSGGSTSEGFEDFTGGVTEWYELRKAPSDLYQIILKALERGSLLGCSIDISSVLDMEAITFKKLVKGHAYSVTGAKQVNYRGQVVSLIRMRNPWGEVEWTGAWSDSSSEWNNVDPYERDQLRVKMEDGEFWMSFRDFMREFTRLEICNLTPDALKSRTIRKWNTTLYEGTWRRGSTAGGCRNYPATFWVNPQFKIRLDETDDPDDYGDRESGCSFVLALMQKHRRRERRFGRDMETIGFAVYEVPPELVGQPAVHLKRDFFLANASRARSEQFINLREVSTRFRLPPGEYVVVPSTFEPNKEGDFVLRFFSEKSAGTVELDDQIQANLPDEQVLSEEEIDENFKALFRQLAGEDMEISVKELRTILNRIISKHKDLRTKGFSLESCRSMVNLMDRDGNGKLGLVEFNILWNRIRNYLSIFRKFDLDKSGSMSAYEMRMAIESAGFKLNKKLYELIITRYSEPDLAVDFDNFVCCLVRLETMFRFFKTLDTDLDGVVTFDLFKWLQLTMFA
T3 sequence (P04632 1-268 partner): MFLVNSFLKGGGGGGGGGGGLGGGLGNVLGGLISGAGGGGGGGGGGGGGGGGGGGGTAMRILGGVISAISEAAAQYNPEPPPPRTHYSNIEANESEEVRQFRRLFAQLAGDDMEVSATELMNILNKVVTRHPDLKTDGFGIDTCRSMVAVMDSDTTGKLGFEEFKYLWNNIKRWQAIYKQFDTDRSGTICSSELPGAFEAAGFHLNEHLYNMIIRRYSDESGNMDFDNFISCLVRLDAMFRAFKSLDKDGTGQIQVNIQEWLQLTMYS

[4] = biological target: T4, cathepsin B isolated from human liver (Homo sapiens, UniProt P07858); assay: Cathepsin B kinetic fluorescence enzyme inhibition assay; details: selectivity ratio versus calpain I
T4 construct: cathepsin B—isolated from human liver; purchased Calbiochem 219362; host or cells: human liver (tissue isolate)
How it was run: as §1

[5] = biological target: T5, cathepsin L isolated from human liver (Homo sapiens, UniProt P07711); assay: Cathepsin L kinetic fluorescence enzyme inhibition assay; details: selectivity ratio versus calpain I
T5 construct: cathepsin L—isolated from human liver; purchased Calbiochem 219402; host or cells: human liver (tissue isolate)
How it was run: as §1

T2 sequence (P25774 115-331): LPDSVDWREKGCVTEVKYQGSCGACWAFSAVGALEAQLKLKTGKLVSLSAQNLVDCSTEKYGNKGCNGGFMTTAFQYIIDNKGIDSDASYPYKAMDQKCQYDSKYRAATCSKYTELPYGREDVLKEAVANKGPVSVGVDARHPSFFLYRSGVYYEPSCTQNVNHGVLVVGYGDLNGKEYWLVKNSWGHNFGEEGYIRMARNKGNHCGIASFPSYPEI
T5 sequence (P07711 114-333): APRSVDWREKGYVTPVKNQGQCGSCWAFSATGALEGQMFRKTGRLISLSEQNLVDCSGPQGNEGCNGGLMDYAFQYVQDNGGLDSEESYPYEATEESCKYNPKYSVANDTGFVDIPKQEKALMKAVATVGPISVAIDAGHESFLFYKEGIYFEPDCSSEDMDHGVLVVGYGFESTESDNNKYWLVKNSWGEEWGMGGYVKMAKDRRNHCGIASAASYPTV

Row | Compound | Sel cat. K (Ki(cathepsin K)/Ki(calpain) ratio) [1] | Sel cat. S (Ki(cathepsin S)/Ki(calpain) ratio) [2] | Ki [3] [nM] | Sel cat. B (Ki(cathepsin B)/Ki(calpain) ratio) [4] | Sel cat. L (Ki(cathepsin L)/Ki(calpain) ratio) [5]
1 | Cc1c(Cl)ccc2c1-c1nn(-c3ncccc3C(=O)NC(Cc3ccccc3)C(=O)C(N)=O)cc1CO2 (centres unmarked) [Example 143, N-[3-Amino-2,3-dioxo-1-(phenylmethyl)propyl]-2-(8-chloro-9-methylchromeno[4,3-c]pyrazol-2(4H)-yl)pyridine-3-carboxamide] | ++ (Ki(cathepsin K)/Ki(calpain) ratio of ≧30) | ++ (Ki(cathepsin S)/Ki(calpain) ratio of ≧100) | 40 to 100 | ++ (Ki(cathepsin B)/Ki(calpain) ratio of ≧30) | ++ (Ki(cathepsin L)/Ki(calpain) ratio of ≧50)
2 | N#Cc1cnc(-n2ccc(-c3ccccc3)n2)c(C(=O)NC(Cc2ccccc2)C(=O)C(N)=O)c1 (centres unmarked) [Example 82, N-(3-Amino-1-benzyl-2,3-dioxopropyl)-5-cyano-2-(3-phenyl-1H-pyrazol-1-yl)nicotinamide] | ++ (Ki(cathepsin K)/Ki(calpain) ratio of ≧30) |  | 40 to 100 | ++ (Ki(cathepsin B)/Ki(calpain) ratio of ≧30) | ++ (Ki(cathepsin L)/Ki(calpain) ratio of ≧50)
3 | NC(=O)C(=O)C(Cc1ccccc1)NC(=O)c1cc(Cl)cnc1-n1ccc(-c2ccccc2)n1 (centres unmarked) [Example 27, N-(3-Amino-1-benzyl-2,3-dioxopropyl)-5-chloro-2-(3-phenyl-1H-pyrazol-1-yl)nicotinamide] | + (10≦Ki(cathepsin K)/Ki(calpain)<30) |  | ≤ 40 | ++ (Ki(cathepsin B)/Ki(calpain) ratio of ≧30) | + (30≦Ki(cathepsin L)/Ki(calpain)<50)
4 | NC(=O)C(=O)C(Cc1ccc(OC(F)(F)F)cc1)NC(=O)c1cccnc1-n1ccc(-c2cccc(C(F)(F)F)c2)n1 (centres unmarked) [Example 134, N-[3-Amino-2,3-dioxo-1-({4-[(trifluoromethyl)oxy]phenyl}methyl)propyl]-2-{3-[3-(trifluoromethyl)phenyl]-1H-pyrazol-1-yl}pyridine-3-carboxamide] | ++ (Ki(cathepsin K)/Ki(calpain) ratio of ≧30) | + (50≦Ki(cathepsin S)/Ki(calpain)<100) |  | ++ (Ki(cathepsin B)/Ki(calpain) ratio of ≧30) | + (30≦Ki(cathepsin L)/Ki(calpain)<50)
5 | NC(=O)C(=O)C(Cc1ccccc1)NC(=O)c1cc(Cl)cnc1-n1ccc(-c2ccc(N3CCOCC3)cc2)n1 (centres unmarked) [Example 31, N-(3-Amino-1-benzyl-2,3-dioxopropyl)-5-chloro-2-[3-(4-morpholin-4-ylphenyl)-1H-pyrazol-1-yl]nicotinamide] | + (10≦Ki(cathepsin K)/Ki(calpain)<30) |  | ≤ 40 | ++ (Ki(cathepsin B)/Ki(calpain) ratio of ≧30) | + (30≦Ki(cathepsin L)/Ki(calpain)<50)
6 | COc1ccc(OC)c(-c2ccn(-c3ncccc3C(=O)NC(Cc3ccccc3)C(=O)C(N)=O)n2)c1 (centres unmarked) [Example 151, N-[3-Amino-2,3-dioxo-1-(phenylmethyl)propyl]-2-{3-[2,5-bis(methyloxy)phenyl]-1H-pyrazol-1-yl}pyridine-3-carboxamide] | ++ (Ki(cathepsin K)/Ki(calpain) ratio of ≧30) |  | 40 to 100 | ++ (Ki(cathepsin B)/Ki(calpain) ratio of ≧30) | ++ (Ki(cathepsin L)/Ki(calpain) ratio of ≧50)
7 | N-{3-Amino-1-[(4-fluorophenyl)methyl]-2,3-dioxopropyl}-2-[3-(2-chloro-3-fluorophenyl)-1H-pyrazol-1-yl]pyridine-3-carboxamide [Example 154] | ++ (Ki(cathepsin K)/Ki(calpain) ratio of ≧30) | ++ (Ki(cathepsin S)/Ki(calpain) ratio of ≧100) |  | ++ (Ki(cathepsin B)/Ki(calpain) ratio of ≧30) | ++ (Ki(cathepsin L)/Ki(calpain) ratio of ≧50)
